Key:
[1] = target: Cyclin-dependent kinase 5/CDK5 activator 1 (Homo sapiens, UniProt Q00535); format: protein-complex assay
[2] = target: Glycogen synthase kinase-3 (Sus scrofa, UniProt B2LUN4+I6LNT8); test: Inhibition of porcine brain GSK3alpha/beta using GS-1 as substrate incubated for 30 mins in presence of [gamma-33 P] ATP by liquid scintillation counting analysis
[3] = target: Dual specificity tyrosine-phosphorylation-regulated kinase 1A (Homo sapiens, UniProt Q13627); test: Inhibition of GST-tagged human recombinant DYRK1A expressed in Escherichia coli using RS peptide as substrate incubated for 30 mins in presence of [gamma-33 P] ATP by liquid scintillation counting analysis
[4] = Inhibition of porcine brain CK1 delta/epsilon using RRKHAAIGpSAYSITA as substrate incubated for 30 mins in presence of [gamma-33 P] ATP by liquid scintillation counting analysis; parameters: species or system Sus scrofa
[5] = target: Dual specificity protein kinase CLK1 (Homo sapiens, UniProt P49759); test: Inhibition of GST-tagged human recombinant CLK1 expressed in Escherichia coli using RS peptide as substrate incubated for 30 mins in presence of [gamma-33 P] ATP by liquid scintillation counting analysis
[6] = target: Dual specificity tyrosine-phosphorylation-regulated kinase 1B (Homo sapiens, UniProt Q9Y463); test: Inhibition of GST-tagged human recombinant DYRK1B expressed in Escherichia coli using RS peptide as substrate incubated for 30 mins in presence of [gamma-33 P] ATP by liquid scintillation counting analysis
[7] = target: Dual specificity protein kinase CLK2 (Homo sapiens, UniProt P49760); test: Inhibition of GST-tagged human recombinant CLK2 expressed in Escherichia coli using RS peptide as substrate incubated for 30 mins in presence of [gamma-33 P] ATP by liquid scintillation counting analysis
[8] = target: Dual specificity protein kinase CLK3 (Homo sapiens, UniProt P49761); test: Inhibition of GST-tagged human recombinant CLK3 expressed in Escherichia coli using RS peptide as substrate incubated for 30 mins in presence of [gamma-33 P] ATP by liquid scintillation counting analysis
[9] = target: Dual specificity protein kinase CLK4 (Homo sapiens, UniProt Q9HAZ1); test: Inhibition of GST-tagged human recombinant CLK4 expressed in Escherichia coli using RS peptide as substrate incubated for 30 mins in presence of [gamma-33 P] ATP by liquid scintillation counting analysis
[10] = Cytotoxicity against human KB cells assessed as growth inhibition at 1 uM after 72 hrs by MTS assay; format: toxicity, cell-based; conditions: for growth inhibition (GI): kb, 72 h, 1 µM; for inhibition at 72 h, 1 µM: KB cells, read-out: GI

Chain of Dual specificity protein kinase CLK2 (P49760 whole entry): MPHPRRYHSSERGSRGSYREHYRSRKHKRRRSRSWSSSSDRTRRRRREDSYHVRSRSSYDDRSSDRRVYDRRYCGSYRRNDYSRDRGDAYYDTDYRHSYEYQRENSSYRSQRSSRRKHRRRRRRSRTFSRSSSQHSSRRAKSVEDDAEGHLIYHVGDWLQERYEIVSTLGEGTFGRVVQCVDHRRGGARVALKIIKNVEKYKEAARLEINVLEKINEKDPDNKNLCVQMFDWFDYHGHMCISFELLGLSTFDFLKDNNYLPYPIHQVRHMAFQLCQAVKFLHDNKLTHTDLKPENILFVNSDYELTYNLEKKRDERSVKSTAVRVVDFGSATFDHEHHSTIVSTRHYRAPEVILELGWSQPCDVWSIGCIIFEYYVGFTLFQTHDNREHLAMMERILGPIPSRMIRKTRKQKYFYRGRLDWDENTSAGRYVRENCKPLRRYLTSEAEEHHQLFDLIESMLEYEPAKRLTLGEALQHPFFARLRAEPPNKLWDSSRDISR
Chain of Cyclin-dependent kinase 5/CDK5 activator 1 (Q00535 whole entry): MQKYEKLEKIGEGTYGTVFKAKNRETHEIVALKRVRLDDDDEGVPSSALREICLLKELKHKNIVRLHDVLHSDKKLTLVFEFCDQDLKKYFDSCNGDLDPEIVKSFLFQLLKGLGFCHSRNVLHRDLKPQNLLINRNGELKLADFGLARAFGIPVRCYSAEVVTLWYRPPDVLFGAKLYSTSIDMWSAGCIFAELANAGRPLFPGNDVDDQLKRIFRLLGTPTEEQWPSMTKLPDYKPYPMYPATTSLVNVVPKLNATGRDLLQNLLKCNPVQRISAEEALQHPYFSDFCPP
Chain of Cyclin-dependent kinase 5/CDK5 activator 1 (Q15078 whole entry, further chain): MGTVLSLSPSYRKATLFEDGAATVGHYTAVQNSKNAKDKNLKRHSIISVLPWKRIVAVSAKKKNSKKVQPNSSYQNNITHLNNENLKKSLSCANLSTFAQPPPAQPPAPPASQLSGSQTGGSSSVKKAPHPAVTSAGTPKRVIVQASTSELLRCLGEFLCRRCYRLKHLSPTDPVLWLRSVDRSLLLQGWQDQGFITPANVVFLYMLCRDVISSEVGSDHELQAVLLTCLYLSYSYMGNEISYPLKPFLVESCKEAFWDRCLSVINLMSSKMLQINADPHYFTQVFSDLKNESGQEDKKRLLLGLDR
Chain of Dual specificity protein kinase CLK3 (P49761 whole entry): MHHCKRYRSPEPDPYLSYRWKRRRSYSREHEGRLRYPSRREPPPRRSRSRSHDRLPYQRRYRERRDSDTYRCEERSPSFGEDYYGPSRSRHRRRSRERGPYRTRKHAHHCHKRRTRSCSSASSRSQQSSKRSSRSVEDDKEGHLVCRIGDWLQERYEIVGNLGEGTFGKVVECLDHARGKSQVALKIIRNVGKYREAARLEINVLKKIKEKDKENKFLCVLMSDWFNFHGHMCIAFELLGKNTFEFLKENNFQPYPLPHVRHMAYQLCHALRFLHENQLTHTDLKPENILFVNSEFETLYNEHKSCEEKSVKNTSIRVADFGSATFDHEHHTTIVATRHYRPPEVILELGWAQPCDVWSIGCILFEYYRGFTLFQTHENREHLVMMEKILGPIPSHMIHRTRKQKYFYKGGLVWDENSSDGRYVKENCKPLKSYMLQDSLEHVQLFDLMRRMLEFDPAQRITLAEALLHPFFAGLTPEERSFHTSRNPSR
Chain of Dual specificity tyrosine-phosphorylation-regulated kinase 1B (Q9Y463 whole entry): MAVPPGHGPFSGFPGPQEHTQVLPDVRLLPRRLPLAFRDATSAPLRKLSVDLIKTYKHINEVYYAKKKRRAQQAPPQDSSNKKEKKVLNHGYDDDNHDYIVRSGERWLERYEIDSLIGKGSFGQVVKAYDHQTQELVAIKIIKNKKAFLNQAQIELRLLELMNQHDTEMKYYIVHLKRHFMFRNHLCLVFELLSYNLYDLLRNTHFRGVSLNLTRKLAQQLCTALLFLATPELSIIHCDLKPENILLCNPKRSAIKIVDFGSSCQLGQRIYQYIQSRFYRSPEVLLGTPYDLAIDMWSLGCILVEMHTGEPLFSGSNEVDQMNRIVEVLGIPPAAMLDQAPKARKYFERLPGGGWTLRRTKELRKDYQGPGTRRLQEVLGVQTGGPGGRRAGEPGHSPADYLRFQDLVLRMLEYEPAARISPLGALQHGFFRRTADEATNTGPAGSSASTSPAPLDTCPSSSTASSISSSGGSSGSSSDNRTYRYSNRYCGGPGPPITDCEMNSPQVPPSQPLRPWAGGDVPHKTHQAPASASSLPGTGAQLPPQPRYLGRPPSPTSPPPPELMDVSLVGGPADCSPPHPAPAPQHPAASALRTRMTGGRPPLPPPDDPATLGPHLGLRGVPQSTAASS
Chain of Dual specificity protein kinase CLK1 (P49759 whole entry): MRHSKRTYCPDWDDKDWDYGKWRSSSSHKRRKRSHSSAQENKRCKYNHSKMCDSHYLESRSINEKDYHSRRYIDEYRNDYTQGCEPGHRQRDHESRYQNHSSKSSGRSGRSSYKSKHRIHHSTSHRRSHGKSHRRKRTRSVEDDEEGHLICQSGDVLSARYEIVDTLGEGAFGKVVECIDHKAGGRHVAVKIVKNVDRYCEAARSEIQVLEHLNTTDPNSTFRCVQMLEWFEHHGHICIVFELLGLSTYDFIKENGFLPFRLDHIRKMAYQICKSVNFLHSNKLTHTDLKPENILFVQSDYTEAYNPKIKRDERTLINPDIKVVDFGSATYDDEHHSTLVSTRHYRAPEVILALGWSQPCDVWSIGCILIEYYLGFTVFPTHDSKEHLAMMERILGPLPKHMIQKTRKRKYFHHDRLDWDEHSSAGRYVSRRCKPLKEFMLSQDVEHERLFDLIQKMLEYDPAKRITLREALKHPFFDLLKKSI
Chain of Dual specificity protein kinase CLK4 (Q9HAZ1 whole entry): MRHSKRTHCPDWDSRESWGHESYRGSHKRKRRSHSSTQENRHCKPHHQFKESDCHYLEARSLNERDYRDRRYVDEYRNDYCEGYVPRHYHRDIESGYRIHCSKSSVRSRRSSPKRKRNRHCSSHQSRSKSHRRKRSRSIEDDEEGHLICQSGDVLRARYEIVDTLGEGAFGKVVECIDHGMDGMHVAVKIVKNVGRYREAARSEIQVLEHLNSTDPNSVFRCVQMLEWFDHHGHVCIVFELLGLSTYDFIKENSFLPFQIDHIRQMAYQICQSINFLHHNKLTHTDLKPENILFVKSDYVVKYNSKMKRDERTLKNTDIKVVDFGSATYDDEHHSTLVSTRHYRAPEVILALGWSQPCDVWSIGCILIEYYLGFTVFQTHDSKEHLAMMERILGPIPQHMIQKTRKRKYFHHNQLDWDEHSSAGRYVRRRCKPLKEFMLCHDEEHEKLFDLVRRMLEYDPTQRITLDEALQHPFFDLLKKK

SMILES | IC50 [1] [µM] | IC50 [2] [µM] | IC50 [3] [µM] | IC50 [4] [µM] | IC50 [5] [µM] | IC50 [6] [µM] | IC50 [7] [µM] | IC50 [8] [µM] | IC50 [9] [µM] | growth inhibition (GI) [10] | inhibition at 72 h, 1 µM [10] [%]
N#C/C(=C\c1ccccc1)c1c[nH]c2ccccc12 | > 10 | > 10 | > 10 | – | – | – | – | – | – | – | –
COc1ccc2c(-c3ccncc3)c[nH]c2n1 | 7 | > 10 | 5.8 | > 10 | 0.43 | 0.22 | 3.5 | 6.1 | 0.11 | Non-Toxic | –
COc1ccc2[nH]cc(/C(C#N)=C(\N)c3cccnc3)c2c1 | > 10 | > 10 | > 10 | > 10 | > 10 | – | – | – | – | – | –
COc1ccc2[nH]cc(/C(C#N)=C/c3cnccc3C)c2c1 | > 10 | > 10 | 5.5 | > 10 | 4 | – | – | – | – | – | –
COc1ccc2[nH]c3c4c(OC)cncc4cc(C#N)c3c2c1 | 0.93 | 4 | 0.6 | > 10 | 0.056 | – | – | – | – | Non-Toxic | –
N#Cc1cc2cnccc2c2[nH]c3ccccc3c12 | 0.8 | 1 | 0.05 | – | – | – | – | – | – | – | –
COc1ccc2c(c1)[nH]c1c3ccncc3cc(C#N)c21 | 0.44 | 0.68 | 0.025 | > 10 | 0.023 | 0.034 | 0.08 | 0.19 | 0.033 | – | 64
COc1ccc2c(c1)[nH]c1c3ccncc3cc(CN(C)C)c21 | 5.4 | > 10 | 0.67 | > 10 | 1.4 | – | – | – | – | – | 37
COc1cccc2[nH]cc(/C(C#N)=C/c3cccnc3)c12 | > 10 | > 10 | 6 | > 10 | 3 | – | – | – | – | – | –
COc1cccc2[nH]c3c4ccncc4cc(C#N)c3c12 | > 10 | > 10 | 0.85 | > 10 | 0.62 | > 10 | 4 | > 10 | 0.1 | – | 13
N#C/C(=C\c1ccncc1)c1c[nH]c2ccccc12 | > 10 | > 10 | > 10 | – | – | – | – | – | – | – | –
COc1ccc2c(c1)[nH]c1c3c(OC)cncc3cc(C(N)=O)c21 | 1.6 | > 10 | 3.3 | > 10 | 1.6 | – | – | – | – | – | –
COc1ccc2c(n1)[nH]c1c3ccncc3cc(C#N)c21 | > 10 | > 10 | 0.2 | > 10 | 0.086 | 0.093 | 4.6 | > 10 | 0.047 | Non-Toxic | –
N#C/C(=C\c1ccccn1)c1c[nH]c2ccccc12 | > 10 | > 10 | > 10 | – | – | – | – | – | – | – | –
COc1ccc2[nH]c3c4ccncc4cc(C#N)c3c2c1 | 0.8 | 1.7 | 0.37 | > 10 | 0.051 | 0.22 | 0.11 | 0.71 | 0.057 | Non-Toxic | –
COc1ccc2c(c1)[nH]c1c3ccncc3cc(CN)c21 | 5.6 | > 10 | 0.87 | > 10 | 0.83 | 0.91 | 1.6 | 7 | 0.27 | – | 85
COc1cccc2c(/C(C#N)=C/c3cccnc3)c[nH]c12 | > 10 | > 10 | 1.2 | > 10 | 1.5 | – | – | – | – | – | –
N#Cc1cc2cnccc2c2[nH]c3ccc(F)cc3c12 | > 10 | > 10 | 0.31 | > 10 | 0.23 | 0.3 | 0.61 | > 10 | 0.2 | Non-Toxic | –

SMILES | IC50 [1] [µM] | IC50 [2] [µM] | IC50 [3] [µM] | IC50 [4] [µM] | IC50 [5] [µM] | IC50 [6] [µM] | IC50 [7] [µM] | IC50 [8] [µM] | IC50 [9] [µM] | growth inhibition (GI) [10] | inhibition at 72 h, 1 µM [10] [%]
COc1ccc2[nH]cc(/C(C#N)=C/c3cccnc3)c2c1 | > 10 | > 10 | 6.3 | – | – | – | – | – | – | – | –
N#C/C(=C\c1cccnc1)c1c[nH]c2ccc(F)cc12 | > 10 | > 10 | 1.8 | > 10 | 1.7 | – | – | – | – | – | –
COc1ccc2[nH]cc3c2c1C(C)NC(c1cccnc1)=C3C#N (centres undefined) | 6.4 | > 10 | 5 | > 10 | > 10 | – | – | – | – | – | –
N#Cc1cc2ccccc2c2[nH]c3ccccc3c12 | > 10 | > 10 | 2.3 | > 10 | 1.4 | – | – | – | – | – | –
N#Cc1cc2ccccn2c2nc3ccccc3c1-2 | > 10 | > 10 | > 10 | > 10 | > 10 | – | – | – | – | – | –
COc1ccc2cc(-c3ccncc3)[nH]c2n1 | > 10 | > 10 | > 10 | > 10 | 2.9 | – | – | – | – | – | –
COc1cncc(/C=C(\C#N)c2c[nH]c3ccc(OC)cc23)c1 | > 10 | > 10 | > 10 | > 10 | 2.3 | – | – | – | – | – | –
N#Cc1cc2cnccc2c2[nH]c3ccc(Cl)cc3c12 | > 10 | > 10 | 4 | > 10 | > 10 | – | – | – | – | – | –
COc1ccc2c(CC#N)c(-c3ccncc3)[nH]c2n1 | > 10 | > 10 | 7.3 | > 10 | 1.1 | – | – | – | – | – | –
N#Cc1cc2ncccc2c2[nH]c3ccccc3c12 | > 10 | > 10 | 10 | > 10 | > 10 | – | – | – | – | – | –
Nc1nc2ccccc2c2cc3cnccc3cc12 | > 10 | > 10 | > 10 | > 10 | 2.1 | – | – | – | – | – | –
COc1ccc2c(c1)[nH]c1c3ccncc3cc(C(N)=O)c21 | 4.5 | 9 | 2 | > 10 | 1.6 | – | – | – | – | – | –
COc1ccc2c(c1)[nH]c1c(C)nccc12 [HARMINE] | – | > 10 | – | 1.5 | – | – | – | – | – | – | –
N#C/C(=C/c1cccnc1)c1c[nH]c2ccccc12 | > 10 | > 10 | > 10 | – | > 10 | – | – | – | – | – | –
N#Cc1cc2cccnc2c2[nH]c3ccccc3c12 | > 10 | > 10 | > 10 | – | – | – | – | – | – | – | –
N#C/C(=C\c1cccnc1)c1c[nH]c2ccccc12 | > 10 | > 10 | 5.5 | – | – | – | – | – | – | – | –
N#C/C(=C\c1cccnc1)c1c[nH]c2ccc(Cl)cc12 | > 10 | > 10 | 3.3 | > 10 | 2 | – | – | – | – | – | –
COc1ccc2c(/C(C#N)=C/c3cccnc3)c[nH]c2c1 | > 10 | > 10 | 1.6 | > 10 | 1.3 | – | – | – | – | – | –
